From US20260262643A1, “HERBICIDAL BENZOXAZINES” (FMC CORPORATION, priority 2022, published 2026)

Columns and labels:
[1] = test system: wheat; test: Test C preemergence; assay type: in vivo, Triticum aestivum; conditions: preemergence, 0 to 100 scale (0 no effect, 100 complete control)
How it was run: (§1)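 Greenhouse herbicide screen, 10-day duration. Test chemicals in solvent/surfactant blend were sprayed onto soil at sowing (pre) or onto 2–10 cm seedlings at one to two leaves (post); injury scored visually against controls, 0 no effect to 100 complete control.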

[2] = test system: pigweed, palmer; test: Test C preemergence; assay type: in vivo, Amaranthus palmeri; conditions: preemergence, 0 to 100 scale (0 no effect, 100 complete control)
How it was run: as §1

[3] = test system: sedge, umbrella; test: Test D flooded paddy test; assay type: in vivo, Cyperus difformis; conditions: 250 g ai/ha, applied to paddy water, visual rating after 13 to 14 days, scale 0 to 100 (0 no effect, 100 complete control)
How it was run: (§2)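 Plants at the 2-leaf stage were grown in pots flooded to 3 cm, and compound was applied directly into the paddy water, with depth kept throughout. After 13–14 days in a greenhouse, injury was rated visually against untreated controls on a 0–100 scale (100 = complete control); a dash means not tested.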

[4] = test system: green foxtail; test: Test C preemergence; assay type: in vivo, Setaria viridis; conditions: preemergence, 0 to 100 scale (0 no effect, 100 complete control)
How it was run: as §1

[5] = test system: barnyardgrass; test: Test D flooded paddy test; assay type: in vivo, Echinochloa crus-galli; conditions: 250 g ai/ha, applied to paddy water, visual rating after 13 to 14 days, scale 0 to 100 (0 no effect, 100 complete control)
How it was run: as §2

[6] = test system: wheat; test: Test C postemergence; assay type: in vivo, Triticum aestivum; conditions: 125 g ai/ha, postemergence, 10 days; 0 to 100 scale, 0 no effect, 100 complete control
How it was run: as §1

[7] = test system: kochia; test: Test C postemergence; assay type: in vivo, Bassia scoparia; conditions: 125 g ai/ha, postemergence, 10 days; 0 to 100 scale, 0 no effect, 100 complete control
How it was run: as §1

[8] = test system: ryegrass, Italian; test: Test C postemergence; assay type: in vivo, Lolium multiflorum; conditions: 125 g ai/ha, postemergence, 10 days; 0 to 100 scale, 0 no effect, 100 complete control
How it was run: as §1

[9] = test system: ducksalad; test: Test D flooded paddy test; assay type: in vivo, Heteranthera limosa; conditions: 250 g ai/ha, applied to paddy water, visual rating after 13 to 14 days, scale 0 to 100 (0 no effect, 100 complete control)
How it was run: as §2

[10] = test system: soybean; test: Test C postemergence; assay type: in vivo, Glycine max; conditions: 125 g ai/ha, postemergence, 10 days; 0 to 100 scale, 0 no effect, 100 complete control
How it was run: as §1

[11] = test system: rice; test: Test D flooded paddy test; assay type: in vivo, Oryza sativa; conditions: 250 g ai/ha, applied to paddy water, visual rating after 13 to 14 days, scale 0 to 100 (0 no effect, 100 complete control)
How it was run: as §2

[12] = test system: soybean; test: Test C preemergence; assay type: in vivo, Glycine max; conditions: preemergence, 0 to 100 scale (0 no effect, 100 complete control)
How it was run: as §1

[13] = test system: kochia; test: Test C preemergence; assay type: in vivo, Bassia scoparia; conditions: preemergence, 0 to 100 scale (0 no effect, 100 complete control)
How it was run: as §1

[14] = test system: blackgrass; test: Test C preemergence; assay type: in vivo, Alopecurus myosuroides; conditions: 0 to 100 scale (0 no effect, 100 complete control)
How it was run: as §1

[15] = test system: barnyardgrass; test: Test C preemergence; assay type: in vivo, Echinochloa crusgalli; conditions: 0 to 100 scale (0 no effect, 100 complete control)
How it was run: as §1

[16] = test system: horseweed; test: Test C postemergence; assay type: in vivo, Erigeron canadensis; conditions: 10 days
How it was run: as §1

[17] = test system: barnyardgrass; test: Test C postemergence; assay type: in vivo, Echinochloa crusgalli; conditions: 10 days
How it was run: as §1

[18] = test system: oat, wild; test: Test C preemergence; assay type: in vivo, Avena fatua; conditions: preemergence, 0 to 100 scale (0 no effect, 100 complete control)
How it was run: as §1

[19] = test system: pigweed, palmer; test: Test C postemergence; assay type: in vivo, Amaranthus palmeri; conditions: 125 g ai/ha, postemergence, 10 days; 0 to 100 scale, 0 no effect, 100 complete control
How it was run: as §1

[20] = test system: blackgrass; test: Test C postemergence; assay type: in vivo, Alopecurus myosuroides; conditions: 10 days
How it was run: as §1

[21] = test system: corn; test: Test C preemergence; assay type: in vivo, Zea mays; conditions: preemergence, 0 to 100 scale (0 no effect, 100 complete control)
How it was run: as §1

[22] = test system: green foxtail; test: Test C postemergence; assay type: in vivo, Setaria viridis; conditions: 10 days
How it was run: as §1

[23] = test system: ryegrass, Italian; test: Test C preemergence; assay type: in vivo, Lolium multiflorum; conditions: preemergence, 0 to 100 scale (0 no effect, 100 complete control)
How it was run: as §1

[24] = test system: galium; test: Test C postemergence; assay type: in vivo, Galium aparine; conditions: 10 days
How it was run: as §1

[25] = test system: ragweed; test: Test C postemergence; assay type: in vivo, Ambrosia artemisiifolia; conditions: 125 g ai/ha, postemergence, 10 days; 0 to 100 scale, 0 no effect, 100 complete control
How it was run: as §1

[26] = test system: ragweed; test: Test C preemergence; assay type: in vivo, Ambrosia artemisiifolia; conditions: preemergence, 0 to 100 scale (0 no effect, 100 complete control)
How it was run: as §1

[27] = test system: oat, wild; test: Test C postemergence; assay type: in vivo, Avena fatua; conditions: 125 g ai/ha, postemergence, 10 days; 0 to 100 scale, 0 no effect, 100 complete control
How it was run: as §1

[28] = test system: corn; test: Test C postemergence; assay type: in vivo, Zea mays; conditions: 10 days
How it was run: as §1

[29] = Preemergence, 500 g ai/ha, visual rating after 10 days
[30] = Test C, preemergence, 125 g ai/ha
[31] = 125 g ai/ha, postemergence, 0 to 100 scale, 0 no effect, 100 complete control
[32] = Postemergence, 500 g ai/ha, visual 0 to 100 scale (0 no effect, 100 complete control)

SMILES: COC[C@H]1CN(C(=O)c2cc(-n3cnc(C4CC4)n3)ccc2C)c2cccc(Cl)c2O1 [Compound 266]
- Wheat plant response rating ([1]; 500 g ai/ha): 70
- Wheat plant response rating ([1]; Test C, 125 g ai/ha): 30
- Pigweed, Palmer plant response rating ([2]; 500 g ai/ha): 100
- Pigweed, Palmer plant response rating ([2]; Test C, 125 g ai/ha): 100
- Plant response rating, Sedge, Umbrella (Flood) [3]: 95
- Foxtail, Green plant response rating ([4]; 500 g ai/ha): 100
- Foxtail, Green plant response rating ([4]; Test C, 125 g ai/ha): 100
- Plant response rating, Barnyardgrass (Flood) [5]: 0
- Plant response rating, Wheat [6]: 20
- Plant response rating, Kochia [7]: 80
- Plant response rating, Ryegrass, Italian [8]: 70
- Plant response rating, Ducksalad (Flood) [9]: 75
- Plant response rating, Soybean [10]: 100
- Plant response rating, Rice (Flood) [11]: 15
- Soybean plant response rating ([12]; 500 g ai/ha): 100
- Soybean plant response rating ([12]; Test C, 125 g ai/ha): 80
- Kochia plant response rating ([13]; 500 g ai/ha): 90
- Kochia plant response rating ([13]; Test C, 125 g ai/ha): 90
- Plant response rating, Blackgrass [14, 29]: 60
- Blackgrass plant response rating [14, 30]: 30
- Plant response rating, Barnyardgrass [15, 29]: 80
- Barnyardgrass plant response rating [15, 30]: 50
- Plant response rating, Horseweed [16, 31]: 20
- Plant response rating, Horseweed [16, 32]: 80
- Plant response rating, Barnyardgrass [17, 31]: 70
- Plant response rating, Barnyardgrass [17, 32]: 90
- Oat, Wild plant response rating ([18]; 500 g ai/ha): 90
- Oat, Wild plant response rating ([18]; Test C, 125 g ai/ha): 40
- Plant response rating, Pigweed, Palmer [19]: 90
- Plant response rating, Blackgrass [20, 31]: 50
- Plant response rating, Blackgrass [20, 32]: 80
- Corn plant response rating ([21]; 500 g ai/ha): 40
- Corn plant response rating ([21]; Test C, 125 g ai/ha): 20
- Plant response rating, Foxtail, Green [22, 31]: 90
- Plant response rating, Foxtail, Green [22, 32]: 90
- Ryegrass, Italian plant response rating ([23]; 500 g ai/ha): 90
- Ryegrass, Italian plant response rating ([23]; Test C, 125 g ai/ha): 80
- Plant response rating, Galium [24, 31]: 100
- Plant response rating, Galium [24, 32]: 100
- Plant response rating, Ragweed [25]: 70
- Ragweed plant response rating ([26]; 500 g ai/ha): 30
- Ragweed plant response rating ([26]; Test C, 125 g ai/ha): 0
- Plant response rating, Oat, Wild [27]: 10
- Plant response rating, Corn [28, 31]: 70
- Plant response rating, Corn [28, 32]: 70
